The values that follow come from publication PMC7000521, “Hazard Characterization of Synthetic Cathinones Using Viability, Monoamine Reuptake, and Neuronal Activity Assays” (Frontiers in Neuroscience, 2020).

Like-named read-outs stand apart in the source and are kept apart here. Marks after values point to notes of the source that are not given here.

The target in data set [1] is T1, hDAT (Homo sapiens, UniProt Q01959).
T1 construct: expressed in transfected cells
Put plainly: Monoamine uptake assay (fluorescent substrate), hDAT. The format is cell-based. The method, then: (§1) Human embryonic kidney (HEK) 293 cells stably expressing human DAT, NET, or SERT (kindly provided by Dr. Hoener from F. Hoffmann-La Roche Ltd., Basel, Switzerland) were cultured as described in [Zwartsen et al. (2017)].
(§2) Uptake activity of hNET, hDAT, and hSERT was measured using the Neurotransmitter Transporter Uptake Assay Kit from MDS Analytical Technologies (Sunnyvale, CA, United States) as described in detail previously ([Zwartsen et al., 2017]). The kit contained a mixture consisting of a fluorescent substrate, which resembles the biogenic amine neurotransmitters, and a masking dye that extinguishes extracellular fluorescence. Uptake of the fluorescent substrate, a measure of neurotransmitter transporter function, increases intracellular fluorescence, while extracellular fluorescence is blocked by the masking dye ([Jorgensen et al., 2008]). The mixture was dissolved in Hank’s Balanced Salt Solution (1×) (HBSS) with 20 mM HEPES, and kept up to 1 week at −20°C.
On day 0, HEK 293 cells were seeded (60,000 cells/well) in clear-bottom black-walled 96-well plates coated with poly-L-lysine (PLL, 50 mg/L). On day 1, cells were pre-incubated with the fluorescent substrate mixture (95 μL/well, comprising of the fluorescent substrate and the extracellular masking dye, dissolved in HBSS) for 12 min (t = −12 to t = 0). During incubation, intracellular fluorescence was measured every 3 min. […] Stock solutions and dilutions were freshly prepared in HBSS (1×) at the day of usage. Effects of 3-MMC, 4-MMC, 4-MEC, methylone, pentedrone, MDPV, 3-MMCinternet, and 4-MECinternet were measured at final concentrations of 0.03–300/1000 μM. Fluorescence was measured with a microplate reader (Tecan Infinite M200 microplate; Tecan Trading Männedorf, Switzerland) at 37°C at 430/515 nm excitation/emission wavelength. For more experimental detail see [Zwartsen et al. (2017)].
Data from the monoamine uptake assay were analyzed as described by [Zwartsen et al. (2017)], with minor modifications. Data for α-PVP were reanalyzed from [Zwartsen et al. (2017)]. In short, the fluorescence of each well was background corrected and uptake was determined per well by calculating the change in fluorescence (ΔFU) at 12 min after drug exposure (t = 12) compared to the fluorescence at the start of exposure (t = 0), as a percentage of the fluorescence at the start of exposure (%ΔFU = ((FUt = 12−FUt = 0)/FUt = 0)∗100%; see [Zwartsen et al., 2017]). Plate-matched control values for each compound (e.g., methylone) above or below two times the standard deviation of the average normalized control value were considered outliers and were removed from analysis (4.8%). Thereafter, uptake in drug-exposed wells was expressed as a percentage of control wells on the same plate and all uptake values were scaled between 0 and 100%. Outliers (>mean ± 2×SD) in exposed groups were removed (2.7%) and uptake (% compared to control) was expressed as mean ± SEM of nwells from Nplates.
Concentration–response curves were made for transporter, MEA, and cell viability assays. To calculate IC50 values, a four-parameter logistic curve with a variable slope was used (Y = Bottom + (Top−Bottom)/(1 + 10∧((LogIC50 − X) ^∗ HillSlo pe))) (GraphPad Prism, version 7.04). When applicable, significance between concentrations and controls (for MEA) and different IC50 values [between different transporters (DAT/NET/SERT), MEA parameters (MSR/MBR/MNBR), exposure settings (acute/prolonged/recovery), and drug grade (pharmaceutical/internet)] were determined using unpaired t-tests (two values) or one-way ANOVA’s followed by a post hoc Dunnet’s test (>2 values). All statistical tests were performed using GraphPad Prism. For recovery of neuronal activity, IC50 values and 95% confidence intervals could not always be determined and are reported as higher than the highest concentration tested (e.g., >1000 μM). […]

For data set [2], the target named is T2, hNET (Homo sapiens, UniProt P23975).
T2 construct: expressed in transfected cells
Nature of the data set: Monoamine uptake assay (fluorescent substrate), hNET. The format is cell-based. Here is the method: as §1
as §2, with “The mixture was dissolved in Hank’s Balanced Salt Solution (1×) (HBSS) with 20 mM HEPES, and kept up to 1 week at −20°C.” left out
On day 0, HEK 293 cells were seeded (60,000 cells/well) in clear-bottom black-walled 96-well plates coated with poly-L-lysine (PLL, 50 mg/L). […] During incubation, intracellular fluorescence was measured every 3 min. […] Effects of 3-MMC, 4-MMC, 4-MEC, methylone, pentedrone, MDPV, 3-MMCinternet, and 4-MECinternet were measured at final concentrations of 0.03–300/1000 μM. Fluorescence was measured with a microplate reader (Tecan Infinite M200 microplate; Tecan Trading Männedorf, Switzerland) at 37°C at 430/515 nm excitation/emission wavelength. […]

Data set [3] in a line: Brain partitioning factor (BPF). The settings on record: brain concentration divided by blood/serum/plasma concentration from human post mortem reports or animal studies (rat/mice). The text has this: (§3) To correlate reported effect concentrations to expected concentrations in the human brain during recreational use a brain partitioning factor (BPF; […]) was applied, as actual human brain concentrations following recreational drug use are unknown. Expected concentrations in the human brain were estimated by multiplying recreational human blood/serum/plasma concentrations with the BPF. Human recreational blood, serum, or plasma levels were obtained from literature (driving under the influence or accidental non-fatal intoxications). The BPF was determined for each drug by dividing the brain concentration by the blood/serum/plasma concentration found in human post mortem reports, or animal studies (rat/mice) when human data were insufficient.

A short description of data set [4]: Estimated human brain concentrations and comparison with IC50 values. The settings on record: recreational human blood/serum/plasma concentration multiplied with BPF.
Text: as §3
To identify the relevance of effects and potentially harmful drugs, effect concentrations (IC50 values) were related to the estimated human brain concentration during recreational use [(brain), Table 2]. By comparing these concentrations, the most relevant neurotoxic mechanisms of cathinones can be identified. […] Only 4-MEC and MDPV inhibited neuronal activity during acute exposure at concentrations within (MDPV) or close to (4-MEC) the estimated brain concentration.

Data set [5] relates to rat primary cortical cultures. Details: method as in Zwartsen et al., 2019. The conditions noted are these: 2019, cited from earlier work; for IC50: value [CI], published previously ref Zwartsen et al.
For data set [6] the following is noted: recreational use (driving under the influence or accidental non-fatal intoxications); ref literature; cited from earlier work.
The target in data set [7] is T3, hSERT (Homo sapiens, UniProt P31645).
T3 construct: expressed in transfected cells
The settings on record: cited from earlier work.

The subject of data set [8] is rat primary cortical cultures. Put plainly: MEA recordings of spontaneous neuronal network activity. Type of data set: cell-based. The settings on record: value [CI]. Here is the method: Rat pups born of timed-pregnant Wistar rats (Envigo, Horst, Netherlands) were sacrificed on postnatal day 0–1 to prepare cortical cultures grown on MEA plates as described previously ([Zwartsen et al., 2018], [2019]). Briefly, a 50 μL drop of cell suspension was added to each well (1 × 10^5 cells/well) of a 48-well MEA plate (Axion BioSystems Inc., Atlanta, GA, United States, M768-GL1-30Pt200) coated with 0.1% polyethyleneimine (PEI). After 2 h, 450 μL dissection medium was added to each well. The day after the isolation (day in vitro 1; DIV1), 450 μL/well dissection medium was replaced with 450 μL/well glutamate medium. At DIV4, 450 μL/well glutamate medium was replaced with 450 μL/well FBS medium (for medium supplements see [Zwartsen et al., 2018], [2019]). Cultures were kept in FBS medium at 37°C, 5% CO2/95% air atmosphere until use at DIV9-10.
Microelectrode array recordings were performed as described in [Zwartsen et al. (2019)]. In short, neuronal activity was measured using a Maestro 768-channel amplifier (Axion BioSystems Inc., Atlanta, GA, United States). Baseline spontaneous neuronal activity was recorded for 30 min at 37°C, after which wells were exposed to selected synthetic cathinones under sterile conditions. Next, neuronal activity was determined during a 30 min “acute exposure” recording. […] Next, exposure medium was replaced with fresh FBS medium and the plate was incubated for 19 h at 37°C, until the 30 min “washout” recording, i.e., 24 h after the start of the exposure.
Effects of 3-MMC, 4-MMC, 4-MEC, pentedrone, 3-MMCinternet, and 4-MECinternet were tested at 1–1000 μM (final concentration). At the day of exposure, stocks and dilutions were freshly made in NB-A FBS medium (for medium supplements see [Zwartsen et al., 2019]). Data on methylone, α-PVP, and MDPV exposure have been published previously in [Zwartsen et al. (2019)]. For each experimental condition, primary cultures from two to three different isolations were used and tested in four to five plates (Nplates). The number of wells (nwells) represents the number of replicates per condition.
Microelectrode array data were analyzed as described in [Zwartsen et al. (2019)]. In short, parameters of interest after acute exposure were expressed as a percentage of the parameters prior to exposure to obtain a treatment ratio for each well (paired comparison; parameterexposure/parameterbaseline as % of control wells). The parameters after prolonged exposure and washout were also expressed as a percentage of the baseline parameters. Next, treatment ratios were grouped per parameter, condition, drug [e.g., mean spike rate (MSR) 10 μM 3-MMC] and exposure scenario (acute, prolonged, or washout).
Outliers (>mean ± 2×SD) for MSR (5.0%) were used to exclude wells on all parameters. Outliers for mean burst rate (MBR; 2.6%) and mean network burst rate (MNBR; 1.4%) were used to exclude wells on specific parameters (burst, network burst, and synchronicity parameters, or network burst and synchronicity parameters, respectively). Finally, the acute, prolonged, and washout control treatment ratios were set to 100% and treatment ratios of exposed wells were normalized to the average treatment ratio of medium control wells of the corresponding parameter and exposure scenario. Treatment ratios of exposed wells were averaged per parameter (e.g., MSR), condition (e.g., 100 μM), drug (e.g., methylone), and exposure scenario (e.g., acute exposure) and used for further statistical analyses [see [Zwartsen et al. (2019)] for more details on criteria, parameters, and exposure scenarios]. Neuronal activity (as % of control) is expressed as mean ± SEM of nwells from Nplates. As the spike, burst, and network burst rates were among the most sensitive parameters, these parameters are presented in the manuscript. Additional parameters are presented in Supplementary Figure 2.
Concentration–response curves were made for transporter, MEA, and cell viability assays. […]

The mark [9] stands for this setting: acute exposure 30 min, read-out: Neuronal activity IC50, mean burst rate (MBR), acute.
Setting [10] is: acute exposure 30 min, read-out: Neuronal activity IC50, mean network burst rate (MNBR), acute.
Setting [11] is: acute exposure 30 min, read-out: Neuronal activity IC50, mean spike rate (MSR), acute.
Where [12] appears, read: 19 h washout, 24 h after start of exposure, read-out: Neuronal activity IC50, mean burst rate (MBR), recovery.
[13] abbreviates: 19 h washout, 24 h after start of exposure, read-out: Neuronal activity IC50, mean network burst rate (MNBR), recovery.

T1 sequence (Q01959 whole entry): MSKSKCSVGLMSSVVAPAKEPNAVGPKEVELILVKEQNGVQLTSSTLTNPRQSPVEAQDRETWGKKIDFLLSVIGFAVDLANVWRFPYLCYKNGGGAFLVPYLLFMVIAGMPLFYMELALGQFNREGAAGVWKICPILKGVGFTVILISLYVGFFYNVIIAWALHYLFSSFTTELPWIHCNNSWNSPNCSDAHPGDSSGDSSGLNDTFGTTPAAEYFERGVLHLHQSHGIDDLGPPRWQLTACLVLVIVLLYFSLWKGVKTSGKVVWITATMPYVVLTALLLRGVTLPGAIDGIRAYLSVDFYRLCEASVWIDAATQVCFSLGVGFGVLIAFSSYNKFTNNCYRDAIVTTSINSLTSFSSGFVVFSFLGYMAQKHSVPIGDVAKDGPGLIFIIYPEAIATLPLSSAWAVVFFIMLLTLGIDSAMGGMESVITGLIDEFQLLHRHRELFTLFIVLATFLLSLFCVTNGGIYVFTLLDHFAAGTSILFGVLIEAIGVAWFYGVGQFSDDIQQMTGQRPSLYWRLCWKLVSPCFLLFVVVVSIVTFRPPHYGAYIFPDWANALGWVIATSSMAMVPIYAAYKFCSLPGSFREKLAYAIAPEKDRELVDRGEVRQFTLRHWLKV
T3 sequence (P31645 whole entry): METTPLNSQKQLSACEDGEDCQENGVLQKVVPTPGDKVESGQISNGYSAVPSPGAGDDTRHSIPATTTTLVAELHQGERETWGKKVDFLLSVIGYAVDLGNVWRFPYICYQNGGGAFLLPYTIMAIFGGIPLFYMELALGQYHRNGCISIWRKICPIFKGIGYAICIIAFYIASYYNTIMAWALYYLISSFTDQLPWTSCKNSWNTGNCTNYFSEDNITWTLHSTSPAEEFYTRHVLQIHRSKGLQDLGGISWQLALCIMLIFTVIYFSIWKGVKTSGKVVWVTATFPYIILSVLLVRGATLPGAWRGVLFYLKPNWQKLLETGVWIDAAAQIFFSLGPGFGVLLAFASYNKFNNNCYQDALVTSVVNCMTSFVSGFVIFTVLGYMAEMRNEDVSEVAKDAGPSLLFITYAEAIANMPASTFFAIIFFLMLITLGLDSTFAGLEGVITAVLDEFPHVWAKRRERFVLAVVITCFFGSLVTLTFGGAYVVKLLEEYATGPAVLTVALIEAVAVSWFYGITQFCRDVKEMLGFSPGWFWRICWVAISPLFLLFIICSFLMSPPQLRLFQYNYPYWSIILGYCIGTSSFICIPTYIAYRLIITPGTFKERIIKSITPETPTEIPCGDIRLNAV
T2 sequence (P23975 whole entry): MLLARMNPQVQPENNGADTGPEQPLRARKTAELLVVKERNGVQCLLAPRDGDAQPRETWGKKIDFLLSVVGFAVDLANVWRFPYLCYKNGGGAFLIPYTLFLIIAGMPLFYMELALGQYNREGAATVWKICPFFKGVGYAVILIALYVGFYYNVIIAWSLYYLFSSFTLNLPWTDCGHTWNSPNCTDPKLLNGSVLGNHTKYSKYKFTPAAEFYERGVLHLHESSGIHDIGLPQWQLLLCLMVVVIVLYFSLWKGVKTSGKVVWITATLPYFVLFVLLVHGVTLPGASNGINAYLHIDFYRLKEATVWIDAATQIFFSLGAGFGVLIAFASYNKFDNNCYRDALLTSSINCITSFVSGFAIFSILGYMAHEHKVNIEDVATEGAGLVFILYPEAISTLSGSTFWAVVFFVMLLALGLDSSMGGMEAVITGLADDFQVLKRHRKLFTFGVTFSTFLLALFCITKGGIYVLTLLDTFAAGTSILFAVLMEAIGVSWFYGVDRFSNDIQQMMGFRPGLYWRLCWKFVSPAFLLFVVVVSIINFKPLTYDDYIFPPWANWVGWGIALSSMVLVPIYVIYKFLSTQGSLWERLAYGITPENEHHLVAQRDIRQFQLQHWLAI

Usually IC50 stands for the concentration that inhibits the measured activity by half. With `CNC(C)C(=O)c1ccc2c(c1)OCO2` (stereo not shown) [Methylone, 1-(1,3-benzodioxol-5-yl)-2-(methylamino)propan-1-one], the IC50 is 2 µM in data set [1]; 1.7 µM in data set [2]; 266 µM in data set [5] (setting [9]); 323 µM in data set [5] (setting [10]); 244 µM in data set [5] (setting [11]); 322 µM in data set [5] (prolonged exposure 4.5 h, read-out: Neuronal activity IC50, mean burst rate (MBR), prolonged). In addition, the IC50 in data set [5] (prolonged exposure 4.5 h, read-out: Neuronal activity IC50, mean network burst rate (MNBR), prolonged) was 362 µM; in data set [5] (prolonged exposure 4.5 h, read-out: Neuronal activity IC50, mean spike rate (MSR), prolonged) it was 283 µM; in data set [5] (washout, 24 h after start of exposure, read-out: Neuronal activity IC50, mean burst rate (MBR), recovery) it was above 1000 µM; in data set [5] (washout, 24 h after start of exposure, read-out: Neuronal activity IC50, mean network burst rate (MNBR), recovery), above 1000 µM; in data set [5] (washout, 24 h after start of exposure, read-out: Neuronal activity IC50, mean spike rate (MSR), recovery), above 1000 µM. Also, the “Brain partitioning factor (BPF)” value in data set [3] is on record as 1.4–4.5^5,^–6,^7. Moreover, in data set [4], the “Estimated human (brain) concentration” value is 0.01 to 81 µM. Besides, the “Reduction of potency to inhibit neuronal activity compared to MDMA” value in data set [5] (methylone versus MDMA, ref Zwartsen et al.) was “threefold”. For the same molecule, in data set [6], the “Human (serum/blood/plasma) concentration” value is recorded as 0.01–18^a,d,g,h μM.
As to `CNC(C)Cc1ccc2c(c1)OCO2` (stereo not shown) [MDMA, 3,4-methylenedioxymethamphetamine], the “Increase in potency to inhibit hSERT” value in data set [7] is given as “threefold”.
With `CNC(C)C(=O)c1cccc(C)c1` (stereo not shown) [3-MMCinternet], the half-inhibitory concentration (IC50) is above 1000 µM in data set [8] (setting [12]), above 1000 µM in data set [8] (setting [13]) and 57 µM in data set [8] (setting [10]).
`CCNC(C)C(=O)c1ccc(C)cc1` (stereo not shown) [4-MECinternet]: the IC50 is 1.7 µM in data set [1] (HEK 293 cells, 37°C, uptake at 12 min after drug exposure, value [CI], read-out: Transporter inhibition IC50, hDAT); above 1000 µM in data set [8] (setting [12]); above 1000 µM in data set [8] (setting [13]); 79 µM in data set [8] (setting [9]); 79 µM in data set [8] (setting [10]); 70 µM in data set [8] (setting [11]).
